Laboratory results reported in patent US10251395B2, “Substituted furano-/thienocycloalkylamino-2-pyrimidine derivatives and use thereof for controlling undesired plant growth” (Bayer CropScience Aktiengesellschaft, priority 2015, dated 2019).

Columns and labels:
logP (HCOOH) = format: physicochemical; conditions: for chromatographic logP: HCOOH (formic acid)
Text: Table 2 (physicochemical characterization of selected synthesis examples)

Veronica persica [1] = assay: Post-emergence herbicidal effect; format: in vivo; conditions: assessed visually after about 3 weeks vs untreated controls
How it was run: (§1)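 Greenhouse post-emergence spray: one-leaf seedlings, sandy loam, aqueous WP/EC formulation with 0.2% wetting agent at 600–800 L/ha. Visual assessment after ~3 weeks, as % activity relative to untreated controls.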

Viola tricolor [2] = assay: Post-emergence herbicidal effect; format: in vivo; conditions: assessed visually after about 3 weeks vs untreated controls
How it was run: as §1

Ipomoea purpurea = assay: Post-emergence herbicidal effect; format: in vivo; conditions: 320 g/ha, assessed visually after about 3 weeks vs untreated controls
How it was run: as §1

Setaria viridis [3] = assay: Pre-emergence herbicidal effect; format: in vivo; conditions: scored visually after 3 weeks
How it was run: (§2)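 Visual damage score in % after 3 weeks in the greenhouse, relative to untreated controls (0% like control, 100% plants dead). Compounds were sprayed pre-emergence onto covering soil over seeds sown in sandy loam, as WP or EC in water at 600 to 800 L/ha plus 0.2% wetting agent.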

Alopecurus myosuroides = assay: Pre-emergence herbicidal effect; format: in vivo; conditions: scored visually after 3 weeks
How it was run: as §2

Veronica persica [4] = assay: Pre-emergence herbicidal effect; format: in vivo; conditions: scored visually after 3 weeks
How it was run: as §2

Polygonum convolvulus = assay: Pre-emergence herbicidal effect; format: in vivo; conditions: Dosage 320 g/ha, scored visually after 3 weeks
How it was run: as §2

Stellaria media [5] = assay: Pre-emergence herbicidal effect; format: in vivo; conditions: scored visually after 3 weeks
How it was run: as §2

Viola tricolor [6] = assay: Pre-emergence herbicidal effect; format: in vivo; conditions: scored visually after 3 weeks
How it was run: as §2

Matricaria inodora [7] = assay: Pre-emergence herbicidal effect; format: in vivo; conditions: scored visually after 3 weeks
How it was run: as §2

Amaranthus retroflexus [8] = assay: Pre-emergence herbicidal effect; format: in vivo; conditions: scored visually after 3 weeks
How it was run: as §2

Echinochloa crus-galli = assay: Pre-emergence herbicidal effect; format: in vivo; conditions: Dosage 320 g/ha, scored visually after 3 weeks
How it was run: as §2

Setaria viridis [9] = assay: Post-emergence herbicidal effect; format: in vivo; conditions: 320 g/ha, assessed visually after about 3 weeks vs untreated controls
How it was run: as §1

Abutilon theophrasti = assay: Post-emergence herbicidal effect; format: in vivo; conditions: assessed visually after about 3 weeks vs untreated controls
How it was run: as §1

Stellaria media [10] = assay: Post-emergence herbicidal effect; format: in vivo; conditions: assessed visually after about 3 weeks vs untreated controls
How it was run: as §1

Matricaria inodora [11] = assay: Post-emergence herbicidal effect; format: in vivo; conditions: assessed visually after about 3 weeks vs untreated controls
How it was run: as §1

Amaranthus retroflexus [12] = assay: Post-emergence herbicidal effect; format: in vivo; conditions: assessed visually after about 3 weeks vs untreated controls
How it was run: as §1

Lolium multiflorum = assay: Pre-emergence herbicidal effect; format: in vivo; conditions: Dosage 320 g/ha, scored visually after 3 weeks
How it was run: as §2

Row | Compound | logP (HCOOH) (logP (HCOOH)) | post-emergence efficacy VERPE (Veronica persica [1]; 80 g/ha) [%] | post-emergence efficacy VERPE (Veronica persica [1]; 320 g/ha) [%] | post-emergence efficacy VIOTR (Viola tricolor [2]; 80 g/ha) [%] | post-emergence efficacy VIOTR (Viola tricolor [2]; 320 g/ha) [%] | SETVI pre-emergence efficacy (herbicidal activity) (Setaria viridis [3]; Dosage 320 g/ha) [%] | ALOMY pre-emergence efficacy (herbicidal activity) (Alopecurus myosuroides; Dosage 320 g/ha) [%] | VERPE pre-emergence efficacy (herbicidal activity) (Veronica persica [4]; Dosage 80 g/ha) [%] | VERPE pre-emergence efficacy (herbicidal activity) (Veronica persica [4]; Dosage 320 g/ha) [%] | POLCO pre-emergence efficacy (herbicidal activity) (Polygonum convolvulus) [%] | STEME pre-emergence efficacy (herbicidal activity) (Stellaria media [5]; Dosage 320 g/ha) [%] | VIOTR pre-emergence efficacy (herbicidal activity) (Viola tricolor [6]; Dosage 80 g/ha) [%] | VIOTR pre-emergence efficacy (herbicidal activity) (Viola tricolor [6]; Dosage 320 g/ha) [%] | MATIN pre-emergence efficacy (herbicidal activity) (Matricaria inodora [7]; Dosage 80 g/ha) [%] | MATIN pre-emergence efficacy (herbicidal activity) (Matricaria inodora [7]; Dosage 320 g/ha) [%] | AMARE pre-emergence efficacy (herbicidal activity) (Amaranthus retroflexus [8]; Dosage 80 g/ha) [%] | AMARE pre-emergence efficacy (herbicidal activity) (Amaranthus retroflexus [8]; Dosage 320 g/ha) [%] | ECHCG pre-emergence efficacy (herbicidal activity) (Echinochloa crus-galli) [%] | post-emergence efficacy MATIN (Matricaria inodora [11]; 320 g/ha) [%] | STEME pre-emergence efficacy (herbicidal activity) (Stellaria media [5]; Dosage 80 g/ha) [%] | other results
1 | Cc1cc2c(s1)CCCC2Nc1ncc(C(=O)C(F)(F)F)c(N)n1 (racemic) [compound 72] | oily; logP (HCOOH): 3.90; 1H NMR (CDCl3, 400 MHZ, δ in ppm): 1.85 (m, 3H, 3H of | 80 | 80 | 80 | 100 | 100 | 90 | 100 | 100 | 100 | 100 | 100 | 100 | 100 | 100 | 80 | 100 | 80 | – | – | post-emergence efficacy PHBPU (Ipomoea purpurea): 80%; ALOMY pre-emergence efficacy (herbicidal activity) (Alopecurus myosuroides; Dosage 80 g/ha): 80%
2 | CNC(=O)c1cnc(NC2CCCc3sc(C)cc32)nc1N (racemic) [compound 266] | logP (HCOOH): 1.17; 1H NMR (CDCl3, 400 MHZ, δ in ppm): 1.90 (m, 3H, 3H of | 90 | 90 | 80 | 90 | 100 | – | 100 | 100 | – | 100 | – | 100 | – | 100 | 100 | 100 | 100 | 60 | 100 | post-emergence efficacy SETVI (Setaria viridis [9]): 60%; post-emergence efficacy ABUTH (Abutilon theophrasti; 80 g/ha): 80%; post-emergence efficacy ABUTH (Abutilon theophrasti; 320 g/ha): 80%; post-emergence efficacy STEME (Stellaria media [10]; 80 g/ha): 80%; post-emergence efficacy STEME (Stellaria media [10]; 320 g/ha): 100%; post-emergence efficacy MATIN (Matricaria inodora [11]; 80 g/ha): 60%; post-emergence efficacy AMARE (Amaranthus retroflexus [12]; 80 g/ha): 90%; post-emergence efficacy AMARE (Amaranthus retroflexus [12]; 320 g/ha): 100%; SETVI pre-emergence efficacy (herbicidal activity) (Setaria viridis [3]; Dosage 80 g/ha): 100%; LOLMU pre-emergence efficacy (herbicidal activity) (Lolium multiflorum): 60%
3 | Cc1cc2c(s1)CCCC2Nc1ncc(F)c(N)n1 (stereo not drawn) [compound 12, 5-Fluoro-N2-(2-methyl-4,5,6,7-tetrahydro-1-benzothiophen-4-yl)pyrimidine-2,4-diamine] | – | – | – | – | – | 90 | 90 | – | 100 | 80 | 100 | – | 100 | – | 90 | – | 90 | – | – | – | chromatographic logP (logP (HCOOH)): 1.07
4 | CS(=O)(=O)c1cnc(NC2CCc3ccsc32)nc1N (stereo not drawn) [compound 33, N2-(5,6-Dihydro-4H-cyclopenta[b]thiophen-6-yl)-5-methylsulfonylpyrimidine-2,4-diamine] | – | – | – | 80 | 90 | – | – | 80 | 100 | 100 | 100 | 100 | 100 | 100 | 100 | 100 | 100 | 100 | 90 | 100 | chromatographic logP (logP (HCOOH)): 1.57; LOLMU pre-emergence efficacy (herbicidal activity) (Lolium multiflorum): 100%
